Measurements taken from patent US12023319B2, “Carboxylic acid aromatic amides” (priority 2016, dated 2024).
“And” between values parts separate entries of the source, which are not always exact repeats. Equal entries are not always repeated.

Assays:
[1] = system: female Sprague Daley rats; test: Cyclophosphamide-induced overactive bladder and cystitis (rats); type: in vivo, rat
Description: 12. Cyclophosphamide-Induced Overactive Bladder and Cystitis (Rats)
The aim of this study was to test the efficacy of Compound Examples on overactive bladder as well as on interstitial cystitis and bladder pain syndrome in cyclophosphamide-treated rats.
The experimental setup is adapted to a previous described protocol (Lecci A et al, Br J Pharmacol 130: 331-38, 2000).
Strong presence and target induction of BDKRB1 in comparison to BDKRB2 has been verified by gene expression analysis in bladders removed from rats after cyclophosphamide (100 mg/kg and 150 mg/kg i.p.) induction in contrast to bladders of naïve, untreated rats. Immunohistochemistry confirmed the presence of BDKRB1 in bladders of rats after model induction, too.
Briefly, female Sprague Daley rats (˜200 g) were housed under normal conditions for laboratory rats in a 12:12-h light:dark cycle. Rats have been weighed, the tested Compound Examples were dissolved in relevant vehicle (e.g. DMSO/Water) (5/95) (v/v) and have been administrated by oral gavage in different concentrations one hour before application of cyclophosphamide (150 mg/kg) by i.p. injection. Additional 1.5 hours after cyclophosphamide administration each rat was transferred to a metabolic cage and voiding frequency has been recorded for the next 15 hours. Total amount of urine (ml) was collected via a plastic tube attached to the metabolic cages. The urine collecting tube was connected to a weight-sensitive sensor and a pressure transducer connected via an amplifier (ADIstruments) to the data acquisition software program (LabChart, ADInstruments) and a computer. […] At the end of the experiment rats have been weighed and killed under isoflurane anaesthesia and bladders have been removed and weighed. The bladders' wet weight was normalized to 100 g of body weight of each rat and analysis has been performed using GraphPad Prism 7 program.

[2] = system: Male Sprague-Dawley rats; test: Rat STZ model for diabetic neuropathy (cold plate, warm plate, paw pressure, SNCV); type: in vivo; conditions: for Latency in Cold plate / Latency in Warm plate / Paw pressure: STZ rats; for Latency in Cold plate / Latency in Warm plate: Day 10, individual animals; for Paw pressure: Day 21, individual animals
Description: 7. Rat STZ Model for Diabetic Neuropathy (Diabetic Neuropathic Pain, Diabetes Induced Nerve Degeneration)
The streptozotocin (STZ) diabetic rat is the most extensively studied animal model of diabetic neuropathy. The animals develop rapidly allodynia and hyperalgesia.
Male Sprague-Dawley rats (˜200 g) were used. They were rendered diabetic by intravenous injection of streptozotocin (55 mg/kg; day 0). Four days (day 4) later, diabetes was confirmed in STZ-injected rats by obtaining a blood sample from the tail vein and by measuring the glucose concentration using a glucose monitor. Only STZ-treated rats with plasma-glucose>260 mg/dl were deemed “diabetic”. The body weight of rats was recorded on daily basis from day 4 to 40.
72 animals were randomly assigned to different groups (12 rats per group).
Compound example 3 was prepared in 10% DMSO in PBS (v/v). […] The treatment was performed on daily basis (twice a day: morning and afternoon) from day 4 until day 40. On the day where behavioral measures are performed, compound or vehicle was given 60 min prior the assessment. On the day where electrophysiological measure was performed, treatment was performed after the assessment.
For positive control regarding analgesia, morphine was dissolved in 0.9% NaCl, and administrated subcutaneously (s.c.) at the dose of 3 mg/kg 45 min prior the tests.
Experimental Plan: • Day 0: induction of diabetes by injection of STZ for all groups except the control group injected with the STZ vehicle • Day 4: glycemia monitoring for all groups and start of the treatment for all groups, except the morphine group. On day 4 rats received only the evening treatment. • Day 10: cold and warm allodynia test for all groups. Treatment is given 60 min prior to the assessment. On that day, the time between the morning and the evening treatment was reduced. • Day 21: Mechanical hyperalgesia test for all groups. Compound or vehicle was given 60 min prior to the assessment. On that day, the time between the morning and the evening treatment was reduced. • Day 22: Termination of rats in the morphine group. • Day 25-26: measurement of sensory nerve conduction velocity (SNCV). On that day, rats only received the evening treatment. • Day 39-40: measurement of sensory nerve conduction velocity (SNCV). On that day, rats only received the evening treatment. • Day 41: skin biopsy from all rats (histology processing and immunostaining of skin biopsy from 7 rats per group take about 4 weeks).
Cold Plate Test on Day 10
The animals were placed into a glass cylinder on a cold platform (0-1° C.). The latency before the first reaction (brisk move of the paw, little leaps) was recorded with a maximal time of 30 s.
Warm Plate Test on Day 10
The animals were placed into a glass cylinder on a hot plate adjusted to 42° C. The latency of the first reaction was recorded (paw lifting or licking, leaps or a jump to escape the heat). Results can be seen in FIG. 8 and table 6.
Paw pressure test is used to assess the hyperalgesia of animals in response to noxious mechanical stimulus. The nociceptive flexion reflex was quantified using the Randall-Selitto paw pressure device (Bioseb, France), which applies a linearly increasing mechanical force to the dorsum of the rat's hind paw. The mechanical nociceptive threshold is defined as the force in grams at which the rat withdraws its paw. The cut off pressure was set to 250 g.
Electrophysiological Measurements (SNCV)
Electrophysiological recordings of SNCV were performed using a Keypoint Electromyograph (EMG) (Medtronic, France). Rats were anaesthetized by intraperitoneal injection of 60 mg/kg ketamine chlorhydrate and 4 mg/kg xylazine. SNCV was recorded in the tail. Electrodes were placed as follows: The recording needle electrode was inserted near the base of the tail and stimulating needle electrode is placed about 50 mm away from the recording electrode towards the extremity of the tail. […]

With `O=C(O)c1cc(NC(=O)C2(c3ccc(C(F)(F)F)cc3F)CC2)ccc1-c1cnn(C2CCC2)c1` [Example 3, 2-(1-Cyclobutyl-1H-pyrazol-4-yl)-5-[({1-[2-fluoro-4-(trifluoromethyl)phenyl]cyclopropyl}carbonyl)amino]benzoic acid] the “bladder weight normalized to 100 g of body weight” value ([1]; 60 mg/kg, compared to vehicle treatment, FIG. 11) was “significantly reduced”, the number of micturitions/hour ([1]; preventive single gavage 15 mg & 60 mg/kg, cyclophosphamide 150 mg/kg i.p., FIG. 9) was “efficacy on reducing” and the “AUC during the plateau phase of the micturition (4-10 hours after transfer to metabolic cages)” value ([1]; preventive single gavage, both tested dosages 15 mg & 60 mg/kg, FIG. 10) was “significantly reduced”. The “effects in all endpoints (warm/cold/mechanical) of neuropathic pain” value ([2]; STZ diabetic rats, p.o. twice a day from day 4, tests on day 10 and day 21) was “significant effects”, the “Latency in Cold plate” value ([2]; 3 mg/kg, 3 mg/kg) was 14.39 s and 14.46 s and 22.78 s and 15.84 s and 16.87 s and 16.18 s and 21.38 s and 20.52 s and 17.93 s and 15.23 s and 26.66 s and 23.47 s and the “Latency in Warm plate” value ([2]; 3 mg/kg, 3 mg/kg) was 19.71 s and 21.41 s and 22.31 s and 20.16 s and 14.49 s and 17.12 s and 22.29 s and 17.89 s (2×) and 23.35 s and 24.72 s and 21.04 s. The Paw pressure ([2]; 3 mg/kg, 3 mg/kg) was 125 g (3×) and 150 g (2×) and 105 g (4×) and 115 g and 140 g and 100 g, the “Latency in Cold plate” value ([2]; 15 mg/kg, 15 mg/kg) was 22.94 s and 18.19 s and 23.62 s and 18.66 s and 20.23 s and 19.51 s and 23.02 s and 17.08 s and 24.66 s and 24.25 s and 20.00 s and the “Latency in Warm plate” value ([2]; 15 mg/kg, 15 mg/kg) was 21.21 s and 17.56 s and 30.00 s and 23.09 s and 23.47 s and 19.44 s and 28.47 s and 15.88 s and 24.82 s and 20.31 s and 27.35 s. The Paw pressure ([2]; 15 mg/kg, 15 mg/kg) was 100 g and 125 g (2×) and 135 g (2×) and 120 g and 110 g (3×) and 85 g and 105 g, the “Latency in Cold plate” value ([2]; 60 mg/kg, 60 mg/kg) was 20.21 s and 15.60 s and 17.29 s and 19.84 s and 14.52 s and 13.66 s and 22.28 s and 24.12 s and 21.12 s and 17.48 s and 22.45 s and 16.59 s and the “Latency in Warm plate” value ([2]; 60 mg/kg, 60 mg/kg) was 17.88 s and 24.69 s and 21.32 s and 18.69 s and 21.23 s and 28.84 s and 18.84 s and 30.00 s and 23.02 s and 20.56 s and 26.94 s and 20.31 s. For the same compound, the Paw pressure ([2]; 60 mg/kg, 60 mg/kg) was 105 g and 165 g and 95 g and 115 g (3×) and 140 g and 120 g and 110 g (3×) and 190 g.
